Source: patent US3985737A, “3-Sulfonate esters of cephalosporin” (Eli Lilly and Company, priority 1974, dated 1976)
Converted amounts (≈) assume the structure as drawn. Where two headings read alike, the source gives them in different places.

Columns and labels:
Pseudomonas aeruginosa = test: Standard Gradient-Plate method, MIC vs. Pseudomonas aeruginosa; assay type: cell-based; conditions: in vitro, read-out: Minimum Inhibitory Concentration
From the text: (§1) The 7-acylamido-3-cephem-3-sulfonate esters of the formula I wherein R1 is hydrogen (the free acid form) are useful antibiotic substances which are useful in combatting infections attributable to gram-positive and gram-negative bacteria and also penicillin resistant staphylococci. The antibacterial activity of these sulfonate esters is illustrated by the following in vitro test data obtained with representative compounds. In Table I below, the minimum inhibitory concentration (MIC) for representative compounds against gram-negative bacteria is presented. The data were obtained by the standard Gradient-Plate method.

Escherichia coli = test: Standard Gradient-Plate method, MIC vs. Escherichia coli; assay type: cell-based; conditions: in vitro, read-out: Minimum Inhibitory Concentration
From the text: as §1

Serratia marcescens = test: Standard Gradient-Plate method, MIC vs. Serratia marcescens; assay type: cell-based; conditions: in vitro, read-out: Minimum Inhibitory Concentration
From the text: as §1

Shigella sp. = test: Standard Gradient-Plate method, MIC vs. Shigella sp.; assay type: cell-based; conditions: in vitro, read-out: Minimum Inhibitory Concentration
From the text: as §1

Klebsiella pneumoniae = test: Standard Gradient-Plate method, MIC vs. Klebsiella pneumoniae; assay type: cell-based; conditions: in vitro, read-out: Minimum Inhibitory Concentration
From the text: as §1

Aerobacter aerogenes = test: Standard Gradient-Plate method, MIC vs. Aerobacter aerogenes; assay type: cell-based; conditions: Klebsiella aerogenes, in vitro, read-out: Minimum Inhibitory Concentration
From the text: as §1

Electrometric titration = assay type: physicochemical; conditions: 80% aqueous methyl cellosolve, 80 percent aqueous methyl cellosolve
From the text: Electrometric titration (80 percent aqueous methyl cellosolve) pKa 3.9.
Electrometric titration in 80 percent aqueous methyl cellosolve pKa 4.15.
Electrometric titration in 80 percent aqueous methyl cellosolve pKa 4.75.
Electrometric titration (80 percent aqueous methyl cellosolve) pKa 4.4.
Electrometric titration (80 percent aqueous methyl cellosolve) pKa 4.25.

Salmonella heidelberg = test: Standard Gradient-Plate method, MIC vs. Salmonella heidelberg; assay type: cell-based; conditions: Salmonella enterica, in vitro, read-out: Minimum Inhibitory Concentration
From the text: as §1

CS(=O)(=O)OC1=C(C(=O)O)N2C(=O)C(NC(=O)Cc3cccs3)[C@H]2SC1 (stereo partly shown) [Compound 1, 7-[2-(2-thienyl)acetamido]-3-methylsulfonyloxy-3-cephem-4-carboxylic acid]
MIC (Pseudomonas aeruginosa): > 200 µg/mL
MIC (Escherichia coli): 11 µg/mL (≈ 26.3 µM)
MIC (Serratia marcescens): 110 µg/mL (≈ 263 µM)
MIC (Shigella sp.): 10.7 µg/mL (≈ 25.6 µM)
MIC (Klebsiella pneumoniae): 6.5 µg/mL (≈ 15.5 µM)
MIC (Aerobacter aerogenes): 3.5 µg/mL (≈ 8.36 µM)
pKa (Electrometric titration; read-out: pKa): 3.9
MIC (Salmonella heidelberg): 2 µg/mL (≈ 4.78 µM)

Cc1ccc(S(=O)(=O)OC2=C(C(=O)O)N3C(=O)C(NC(=O)Cc4cccs4)[C@H]3SC2)cc1 (stereo partly shown) [Compound 4, 7-[2-(2-thienyl)acetamido]-3-(p-toluenesulfonyloxy)-3-cephem-4-carboxylic acid]
MIC (Pseudomonas aeruginosa): > 200 µg/mL
MIC (Escherichia coli): 16.3 µg/mL (≈ 33 µM)
MIC (Serratia marcescens): > 200 µg/mL
MIC (Shigella sp.): 19.5 µg/mL (≈ 39.4 µM)
MIC (Klebsiella pneumoniae): 9.3 µg/mL (≈ 18.8 µM)
MIC (Aerobacter aerogenes): 16.5 µg/mL (≈ 33.4 µM)
pKa (Electrometric titration; read-out: pKa): 4.4
MIC (Salmonella heidelberg): 125 µg/mL (≈ 253 µM)

CCCCS(=O)(=O)OC1=C(C(=O)O)N2C(=O)C(NC(=O)Cc3cccs3)[C@H]2SC1 (stereo partly shown) [Compound 3, 7-[2-(2-thienyl)acetamido]-3-n-butylsulfonyloxy-3-cephem-4-carboxylic acid]
MIC (Pseudomonas aeruginosa): > 200 µg/mL
MIC (Escherichia coli): 8.8 µg/mL (≈ 19.1 µM)
MIC (Serratia marcescens): 180 µg/mL (≈ 391 µM)
MIC (Shigella sp.): 6.5 µg/mL (≈ 14.1 µM)
MIC (Klebsiella pneumoniae): 5.5 µg/mL (≈ 11.9 µM)
MIC (Aerobacter aerogenes): 6 µg/mL (≈ 13 µM)
pKa (Electrometric titration; read-out: pKa): 4.75
MIC (Salmonella heidelberg): 6 µg/mL (≈ 13 µM)

O=C(Cc1cccs1)NC1C(=O)N2C(C(=O)O)=C(OS(=O)(=O)c3ccc(F)cc3)CS[C@H]12 (stereo partly shown) [Compound 5, 7-[2-(2-thienyl)acetamido]-3-(4-fluorobenzenesulfonyloxy)-3-cephem-4-carboxylic acid]
MIC (Pseudomonas aeruginosa): > 200 µg/mL
MIC (Escherichia coli): 24 µg/mL (≈ 48.1 µM)
MIC (Serratia marcescens): > 200 µg/mL
MIC (Shigella sp.): 16.5 µg/mL (≈ 33.1 µM)
MIC (Klebsiella pneumoniae): 16.3 µg/mL (≈ 32.7 µM)
MIC (Aerobacter aerogenes): 12 µg/mL (≈ 24.1 µM)
pKa (Electrometric titration; read-out: pKa): 4.25
MIC (Salmonella heidelberg): 13.5 µg/mL (≈ 27.1 µM)

CS(=O)(=O)OC1=C(C(=O)O)N2C(=O)C(NC(=O)[C@H](N)c3ccccc3)C2SC1 (stereo partly drawn) [Compound 6, 7-(D-phenylglycylamido)-3-methylsulfonyloxy-3-cephem-4-carboxylic acid]
MIC (Pseudomonas aeruginosa): > 200 µg/mL
MIC (Escherichia coli): 19.5 µg/mL (≈ 45.6 µM)
MIC (Serratia marcescens): 100 µg/mL (≈ 234 µM)
MIC (Shigella sp.): 13.6 µg/mL (≈ 31.8 µM)
MIC (Klebsiella pneumoniae): 5.5 µg/mL (≈ 12.9 µM)
MIC (Aerobacter aerogenes): 8.8 µg/mL (≈ 20.6 µM)
pKa (Electrometric titration; read-out: pKa): 3.6
pKa (Electrometric titration; second of two pKa values, read-out: pKa (second value)): 6.75
MIC (Salmonella heidelberg): 7 µg/mL (≈ 16.4 µM)

CCS(=O)(=O)OC1=C(C(=O)O)N2C(=O)C(NC(=O)Cc3cccs3)[C@H]2SC1 (stereo partly shown) [Compound 2, 7-[2-(2-thienyl)acetamido]-3-ethylsulfonyloxy-3-cephem-4-carboxylic acid]
MIC (Pseudomonas aeruginosa): > 200 µg/mL
MIC (Escherichia coli): 13.1 µg/mL (≈ 30.3 µM)
MIC (Serratia marcescens): 120 µg/mL (≈ 277 µM)
MIC (Shigella sp.): 7 µg/mL (≈ 16.2 µM)
MIC (Klebsiella pneumoniae): 7 µg/mL (≈ 16.2 µM)
MIC (Aerobacter aerogenes): 3.5 µg/mL (≈ 8.09 µM)
pKa (Electrometric titration; read-out: pKa): 4.15
MIC (Salmonella heidelberg): 4 µg/mL (≈ 9.25 µM)
